# Molecular target: T1, EtLsc (Erwinia tasmaniensis levansucrase) (Erwinia tasmaniensis, UniProt B2VCC3)
# T1 construct: gene lsc; lsc gene amplified from Et1/99, pMCSG49 vector, E. coli BL21(DE3) Star pLysS; His6 tag cleaved with TEV protease; IMAC and size exclusion; catalytic triad Asp46, Asp203, Glu287
# Experiment: microscale thermophoresis, label-free (Monolith NT.LabelFree)
# Type: binding
# T1 sequence (B2VCC3 entry or part of it): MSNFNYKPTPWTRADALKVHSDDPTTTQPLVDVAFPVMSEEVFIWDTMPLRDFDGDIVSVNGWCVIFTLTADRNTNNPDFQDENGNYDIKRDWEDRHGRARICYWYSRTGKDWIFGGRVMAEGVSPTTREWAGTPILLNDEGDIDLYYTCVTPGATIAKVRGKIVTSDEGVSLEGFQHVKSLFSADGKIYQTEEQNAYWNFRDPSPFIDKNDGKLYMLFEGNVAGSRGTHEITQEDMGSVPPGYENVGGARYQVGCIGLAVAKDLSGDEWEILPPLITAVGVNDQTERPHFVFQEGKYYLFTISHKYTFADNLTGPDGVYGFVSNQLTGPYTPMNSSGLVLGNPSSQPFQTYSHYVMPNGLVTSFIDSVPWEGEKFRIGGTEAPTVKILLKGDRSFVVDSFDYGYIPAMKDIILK
smiles,measurement,value
"OCC[C@H](O)CO (mixture of isomers) [(S)-1,2,4-butanetriol]",Kd,84.9 ± 13.4 mM

# Source: article PMC9350837, “Erwinia tasmaniensis levansucrase shows enantiomer selection for (S)-1,2,4-butanetriol” (Acta Crystallographica. Section F, Structural Biology …, 2022)
